The results in this text go back to patent publication US10364256B2 (GlaxoSmithKline Intellectual Property Development Limited, priority 2015, dated 2019).

In experiment [1] the target is T1, full length Keap1 protein / full length NRF2 protein (Homo sapiens, UniProt Q14145).
T1 construct: full length NRF2 protein and full length Keap1 protein (Keap1 exists a dimer) are used; His
The experiment is described as follows: NRF2-Keap1 TR-FRET Low Protein Assay. The format is binding. The conditions noted are these: 1.25 nM Keap1 FlagHis and 2.5 nM biotin-NRF2 added. The method in brief:
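Flag-tagged full-length Keap1 was preincubated with compound (3-fold series) for 2.25 h at 37 °C in Tris pH 8.0/MgCl2/NaCl/BSA/DTT/CHAPS. Biotin-Avi-NRF2 (added at 2.5 nM) was then bound for 1.25 h at 4 °C. Eu-streptavidin/anti-Flag-APC TR-FRET (665/615 nm) was read after 1 h at RT, and pIC50 came from a four-parameter fit.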

In experiment [2] the target is T1, full length Keap1 protein / full length NRF2 protein. The experiment is described as follows: NRF2-Keap1 TR-FRET Assay. Type of experiment: binding. To be noted: 25 nM Keap1-FlagHis and 50 nM biotin-NRF2 added. The method in brief: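 Full-length Keap1-FlagHis preincubated with compound 2.25 h at 37 °C, then biotin-NRF2 added for 1.25 h at 4 °C, in Tris pH 8.0 with MgCl2, NaCl, BSA, DTT, CHAPS. TR-FRET 665/615 nm ratio normalised to with- and without-protein 1% DMSO controls; pIC50 from four-parameter fit.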

T1 sequence (Q14145 whole entry): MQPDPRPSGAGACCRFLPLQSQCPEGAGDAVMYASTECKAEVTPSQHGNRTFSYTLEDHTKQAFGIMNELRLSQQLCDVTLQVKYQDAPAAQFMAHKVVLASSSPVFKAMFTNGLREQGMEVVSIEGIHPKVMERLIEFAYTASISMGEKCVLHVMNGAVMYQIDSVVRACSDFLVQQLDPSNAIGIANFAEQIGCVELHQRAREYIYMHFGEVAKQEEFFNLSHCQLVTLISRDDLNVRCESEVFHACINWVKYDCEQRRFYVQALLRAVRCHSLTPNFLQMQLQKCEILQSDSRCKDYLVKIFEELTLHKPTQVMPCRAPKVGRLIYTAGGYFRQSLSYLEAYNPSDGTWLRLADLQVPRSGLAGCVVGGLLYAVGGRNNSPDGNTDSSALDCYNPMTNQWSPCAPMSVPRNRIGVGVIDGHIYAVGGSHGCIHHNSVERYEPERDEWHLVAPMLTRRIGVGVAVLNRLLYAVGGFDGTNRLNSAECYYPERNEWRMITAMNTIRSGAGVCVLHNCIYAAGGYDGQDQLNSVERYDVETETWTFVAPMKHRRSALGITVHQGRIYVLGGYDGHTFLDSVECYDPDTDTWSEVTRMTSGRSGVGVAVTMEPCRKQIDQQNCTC

On to `CCC[C@@H]1CO[C@@H](C)CN1C(=O)c1cccc(-c2cccc(-n3ncc(C(=O)O)c3C3CC3)c2)c1F` [Example 45, 5-cyclopropyl-1-(3-{2-fluoro-3-[(2S,5R)-2-methyl-5-propylmorpholine-4-carbonyl]phenyl}phenyl)-1H-pyrazole-4-carboxylic Acid], for which the 50% inhibitory concentration (IC50) in experiment [1] lay in the range of 10 to 100 nM; in experiment [2], 100 to 1000 nM.

As to `CC1CC(C)CN(C(=O)c2cccc(-c3cccc(-n4ncc(C(=O)O)c4C4CC4)c3)c2F)C1` (centres unmarked) [Example 53, 5-Cyclopropyl-1-[3′-(3,5-dimethyl-piperidine-1-carbonyl)-2′-fluoro-biphenyl-3-yl]-1H-pyrazole-4-carboxylic Acid], the results for the 50% inhibitory concentration (IC50) in experiment [1] and in experiment [2] were 10 to 100 nM and 100 to 1000 nM, respectively.

For `CCC[C@@H]1CCCCN1C(=O)c1cccc(-c2cccc(-n3ncc(C(=O)O)c3C3CC3)c2)c1F` [Example 54e, 5-Cyclopropyl-1-{3-[2-fluoro-3-((2-S)-2-propylpiperidine-1-carbonyl)phenyl]phenyl}-1H-pyrazole-4-carboxylic Acid], the IC50 in experiment [1] fell in the range of 100 to 1000 nM; in experiment [2] it was 1000 to 10000 nM.

Regarding `CCC[C@@H]1CCCCN1C(=O)c1cccc(-c2cccc(-n3ncc(C(=O)O)c3CCc3cn(C)nn3)c2)c1F` [Example 55, (R)-1-(2′-Fluoro-3′-(2-propylpiperidine-1-carbonyl)-[1,1′-biphenyl]-3-yl)-5-(2-(1-methyl-1H-1,2,3-triazol-4-yl)ethyl)-1H-pyrazole-4-carboxylic Acid], the concentration for half-maximal inhibition (IC50) in experiment [1] and in experiment [2] was 10 to 100 nM each time.

With `CC(C)Oc1cccc(-c2cccc(-n3ncc(C(=O)O)c3C3CC3c3cn(C)nn3)c2)c1` (centres unmarked) [Example 59, 1-(3′-Isopropoxy-[1,1′-biphenyl]-3-yl)-5-(2-(1-methyl-1H-1,2,3-triazol-4-yl)cyclopropyl)-1H-pyrazole-4-carboxylic Acid], the half-inhibitory concentration (IC50) in experiment [1] and in experiment [2] was 100 to 1000 nM in each case.

For the compound `CC1(C)CCc2cnn(-c3cccc(-c4cccc(-n5ncc(C(=O)O)c5C5CC5)c4)c3)c21` [Example 63, 5-Cyclopropyl-1-(3′-(6,6-dimethyl-5,6-dihydrocyclopenta[c]pyrazol-1(4H)-yl)-[1,1′-biphenyl]-3-yl)-1H-pyrazole-4-carboxylic Acid], the half-maximal inhibitory concentration (IC50) was in the range of 10 to 100 nM in experiment [1] and 100 to 1000 nM in experiment [2].

Take `CC1(C)CCc2cnn(-c3cccc(-c4cccc(-n5ncc(C(=O)O)c5C(F)(F)F)c4)c3)c21` [Example 250, 1-(3′-(6,6-Dimethyl-5,6-dihydrocyclopenta[c]pyrazol-1(4H)-yl)-[1,1′-biphenyl]-3-yl)-5-(trifluoromethyl)-1H-pyrazole-4-carboxylic Acid]: the results for the IC50 in experiment [1] and in experiment [2] were 100 to 1000 nM and 10000 to 100000 nM, respectively.

As for `C[C@@H]1CN(Cc2cccc(-c3cccc(-n4ncc(C(=O)O)c4[C@@H]4C[C@H]4c4cn(C)nn4)c3)c2)Cc2ccccc2O1` [Example 253], the values for the concentration for half-maximal inhibition (IC50) in experiment [1] and in experiment [2] were < 10 nM and 100 to 1000 nM, respectively.

As to `CCOC[C@@H]1CCCN1C(=O)c1cccc(-c2cccc(-n3ncc(C(=O)O)c3[C@@H]3C[C@H]3c3cn(C)nn3)c2)c1F` [Example 267], the half-inhibitory concentration (IC50) was < 10 nM in experiment [1] and 10 to 100 nM in experiment [2].

Turning to `CCOC[C@H]1CCCN1C(=O)c1cccc(-c2cccc(-n3ncc(C(=O)O)c3[C@@H]3C[C@H]3c3cn(C)nn3)c2)c1F` [Example 268], the IC50 was < 10 nM in experiment [1] and 10 to 100 nM in experiment [2].
